Laboratory results from patent US20240000075A1, “FUNGICIDAL ARYL AMIDINES” (CORTEVA AGRISCIENCE LLC, priority 2020, published 2024).
Read-outs that look alike come from different tables or passages of the source.

What was measured:
Puccinia triticina = test: Wheat brown rust, whole-plant fungicidal activity (PUCCRT); format: in vivo, Puccinia triticina on wheat plants (variety 'Yuma'); details: 24 h, 1DP (1 day protectant), read-out: % Disease Control Rating PUCCRT
Procedure: Technical grades of materials were dissolved in acetone, which were then mixed with nine volumes of water (H2O) containing 110 ppm Triton X-100. The fungicide solutions were applied onto wheat seedlings using an automated booth sprayer to run-off. All sprayed plants were allowed to air dry prior to further handling. All fungicides were evaluated using the aforementioned method for their activity vs. all target diseases, unless stated otherwise.
Example B: Evaluation of Fungicidal Activity: Wheat Brown Rust (Puccinia triticina; Synonym: Puccinia recondita f sp. tritici; Bayer Code PUCCRT)
Wheat plants (variety ‘Yuma’) were grown from seed in a greenhouse in soil-less potting mix until the first leaf was fully emerged, with 7-10 seedlings per pot. These plants were inoculated with an aqueous spore suspension of Puccinia triticina after fungicide treatments. After inoculation, the plants were kept in a dark dew room with 100% relative humidity overnight to permit spores to germinate and infect the leaf. The plants were then transferred to a greenhouse for disease to develop. Fungicide formulation, application and disease assessment followed the procedures as described in Example A.

Rhynchosporium commune = test: Leaf blotch of barley, whole-plant fungicidal activity (RHYNSE); format: in vivo; details: 24 h, 1DP (1 day protectant), read-out: % Disease Control Rating RHYNSE
Procedure: Technical grades of materials were dissolved in acetone, which were then mixed with nine volumes of water (H2O) containing 110 ppm Triton X-100. The fungicide solutions were applied onto wheat seedlings using an automated booth sprayer to run-off. All sprayed plants were allowed to air dry prior to further handling. All fungicides were evaluated using the aforementioned method for their activity vs. all target diseases, unless stated otherwise. Example D: Evaluation of Fungicidal Activity: Leaf Blotch of Barley (Rhynchosporium commune; Bayer Code […]) Barley plants (variety 'Harrington') were grown from seed in a greenhouse in soil-less potting mix until the first leaf was fully emerged, with 7-10 seedlings per pot. These plants were inoculated with an aqueous spore suspension of Rhynchosporium commune after fungicide treatments. After inoculation, the plants were kept in a dark dew room with 100% relative humidity for two days to permit spores to germinate and infect the leaf. The plants were then transferred to a greenhouse for disease to develop. Fungicide formulation and application were made as described in Example A. Disease assessment was conducted as described in Example A.

Zymoseptoria tritici = test: Septoria leaf blotch of wheat, whole-plant fungicidal activity (SEPTTR); format: in vivo, Zymoseptoria tritici on wheat plants (variety 'Yuma'); details: read-out: % Disease Control Rating SEPTTR
Procedure: Example A: Evaluation of Fungicidal Activity: Septoria Leaf Blotch of Wheat (Zymoseptoria tritici; Bayer Code […]) Technical grades of materials were dissolved in acetone, which were then mixed with nine volumes of water (H2O) containing 110 ppm Triton X-100. The fungicide solutions were applied onto wheat seedlings using an automated booth sprayer to run-off. All sprayed plants were allowed to air dry prior to further handling. All fungicides were evaluated using the aforementioned method for their activity vs. all target diseases, unless stated otherwise. Wheat plants (variety 'Yuma') were grown from seed in a greenhouse in soil-less potting mix until the first leaf was fully emerged, with 7-10 seedlings per pot. These plants were inoculated with an aqueous spore suspension of Zymoseptoria tritici either 3 days prior to fungicide treatment (3 day curative; 3DC) or 1 day after fungicide treatment (1 day protectant; 1DP). After inoculation the plants were kept in 100% relative humidity for three days to permit spores to germinate and infect the leaf. The plants were then transferred to a greenhouse for disease to develop. When disease symptoms were fully expressed on the 1st leaves of untreated plants, infection levels were assessed on a scale of 0 to 100 percent disease severity. Percent disease control was calculated using the ratio of disease severity on treated plants relative to untreated plants.

Phakopsora pachyrhizi = test: Asian soybean rust, whole-plant fungicidal activity (PHAKPA); format: in vivo; details: read-out: % Disease Control Rating PHAKPA
Procedure: Example C: Evaluation of Fungicidal Activity: Asian Soybean Rust (Phakopsora pachyrhizi; Bayer Code […]) Technical grades of materials were dissolved in acetone, which were then mixed with nine volumes of H2O containing 0.011% Tween-20. The fungicide solutions were applied onto soybean seedlings using an automated booth sprayer to run-off. All sprayed plants were allowed to air dry prior to further handling. Soybean plants (variety 'Williams 82') were grown in soil-less potting mix, with one plant per pot. Ten-day-old seedlings were used for testing. Plants were inoculated as described in Example A. Plants were incubated for 24 h in a dark dew room with 100% relative humidity then transferred to a growth room for disease to develop. Fungicide formulation and application were made as described in Example A. When disease symptoms were fully expressed, disease severity was assessed on the sprayed leaves on a scale of 0 to 100 percent. Percent disease control was calculated using the ratio of disease severity on treated plants relative to untreated plants.

Row | SMILES | pest or weed control at 200 ppm (Puccinia triticina) [%] | pest or weed control at 200 ppm (Rhynchosporium commune) [%] | pest or weed control at 200 ppm (Zymoseptoria tritici; 24 h, 1DP (1 day protectant)) [%] | pest or weed control at 200 ppm (Zymoseptoria tritici; 72 h, 3DC (3 day curative)) [%] | pest or weed control at 200 ppm (Phakopsora pachyrhizi; 24 h, 1DP (1 day protectant)) [%] | pest or weed control at 200 ppm (Phakopsora pachyrhizi; 72 h, 3DC (3 day curative)) [%]
1 | CCN(CC)/C(S)=N/c1cc(C)c(C(=O)CC2CCCCC2)cc1C [Compound 55] | > 85 | < 20 | 50 to 85 | < 20 | > 85 | > 85
2 | CCN(C)/C=N/c1cc(C)c(C(=O)Cc2ccc(Cl)cc2)cc1C [Compound 69] | > 85 | 50 to 85 | 50 to 85 | 50 to 85 | > 85 | > 85
3 | CCN(C)/C(S)=N/c1cc(C)c(C(=O)CC2CCCCC2)cc1C [Compound 61] | > 85 | > 85 | > 85 | < 20 | > 85 | > 85
4 | CCN(C)/C=N/c1cc(C)c(C(=O)Cc2cccc(C(F)(F)F)c2F)cc1C [Compound 36] | > 85 | 50 to 85 |  | < 20 | > 85 | > 85
5 | Cc1cc(C(=O)CC2CCCCC2)c(C)cc1/N=C/N(C)C [Compound 57] | > 85 | < 20 | 50 to 85 | < 20 | > 85 | > 85
6 | CCN(C)/C=N/c1cc(OC)c(C(=O)Cc2c(F)cc(F)cc2F)cc1C [Compound 37] | > 85 | < 20 | > 85 | 50 to 85 | > 85 | > 85
7 | CCN(C)/C=N/c1cc(C)c(C(=O)Cc2ccccc2OC(F)(F)F)cc1C [Compound 33] | > 85 | > 85 | > 85 | 50 to 85 | > 85 | > 85
8 | CCN(C)/C=N/c1cc(C)c(C(=O)Cc2ccc(F)cc2)cc1C [Compound 68] | > 85 | > 85 | > 85 | < 20 | > 85 | > 85
9 | Cc1cc(C(=O)Cc2c(F)cc(F)cc2F)c(C)cc1/N=C/N1CCCCC1 [Compound 81] | > 85 | < 20 | < 20 | < 20 | 50 to 85 | 
10 | CCN(/C=N/c1cc(C)c(C(=O)CC2CCCC2)cc1C)CC [Compound 77] | > 85 | 20 to 50 | < 20 | < 20 | > 85 | > 85
11 | CCCc1ccc(CC(=O)c2cc(C)c(/N=C/N(C)CC)cc2C)cc1 [Compound 64] | > 85 | > 85 | 50 to 85 | < 20 | > 85 | > 85
